Experiments:
Format in all cases: cell-based
[1] = tested on: human adipose stem cells (hASCs); assay: ALP activity of hASCs in 3D PLGA/β-TCP scaffold, dynamic and static culture
Protocol: (§1) In one embodiment, dynamic culture of pre-treated hASCs with calcitriol, using the modified perfusion bioreactor comprises the following steps. In one embodiment, the scaffolds are 3D PLGA/β-TCP. The modified perfusion bioreactor […] comprises five scaffolds, loaded with a total of 70 ml of culture medium as shown in FIG. 2. At another step, 30 ml of the culture medium is replaced twice a week for a total period of two weeks. At another step, the culture medium in the modified perfusion bioreactor 200 is distributed to the five scaffolds with the flow rate of about 5 ml/min using the peristaltic pump 202.
(§2) In one embodiment, the method of static culture of pre-treated hASCs is continued in a flask bioreactor with the same volume of culture medium utilized in the dynamic culture. Further, the methods of culturing the hASCs are divided into different groups. In one embodiment, the methods of culturing of hASCs are divided into four groups such as, static culture of non-treated hASCs, static culture of pre-treated hASCs with calcitriol, dynamic culture of non-treated hASCs and dynamic culture of pre-treated hASCs with calcitriol.
Referring to FIG. 10, the effects of dynamic pre-treated/non-treated hASCs versus static pre-treated/non-treated hASCs on ALP activity of hASCs are disclosed, where the hASCs are seeded in 3D PLGA/β-TCP scaffold. In one embodiment, the hASCs are pre-treated with or without 10 nM calcitriol for 30 minutes and cultured in the modified perfusion bioreactor 200 (dynamic culture) and flask bioreactor (static culture). The ALP activity of hASCs after 7 days perfusion culture of pre-treated hASCs is increased by 9.2-fold compared to static culture of pre-treated hASCs, and the ALP activity of non-treated hASCs is increased by 10.3-fold compared to static culture of non-treated hASCs.
The 14 days of perfusion culture of non-treated hASCs increases ALP activity by 1.4-fold relative to static counterpart, and perfusion culture of pre-treated hASCs increases ALP activity by 2.2-fold relative to static culture of pre-treated hASCs. Moreover, calcitriol pre-treatment increases ALP activity of hASCs by 2.8-fold at day 7 and 1.3-fold at day 14 compared to non-treated hASCs in static condition. On the whole, the highest ALP activity is observed at day 7, which belongs to perfusion culture of pre-treated hASCs with calcitriol.

[2] = tested on: human adipose stem cells (hASCs); assay: hASC proliferation (cell number) on BCP scaffold, static culture; details: vs non-treated controls
Protocol: In one embodiment, a method of static culture of hASCs by pre-treatment with vitamin D3 (calcitriol) and attachment of hASCs to the scaffold used in one-step surgical procedure comprises the following steps. At one step, isolating hASCs as explained in FIG. 1. In an embodiment, the hASCs from three donors at passage 3 are used for further processing. As an optional step, the obtained hASCs are either or not incubated for a period of about 30 mins with low concentrated calcitriol of about 10 nM at room temperature. At next step, the calcitriol treated hASCs are washed twice with Phosphate Buffered Saline (PBS) to remove calcitriol. Further, the washed hASCs are centrifuged and resuspended in Dulbecco's Minimum Essential Medium (DMEM) without any supplements. At another step, the resuspended cells are seeded on the scaffold and allowed to attach to the scaffolds for a period of about 30 minutes. At next step, the scaffolds with attached cells are transferred to 12-well plates with Costar® Transwell® containers (Corning Life Sciences, Lowell, Mass., USA) containing expansion medium (DMEM) supplemented with 10% Fetal Clone I (FCI), antibiotics (1% penicillin/streptomycin/fungizone (PSF)), 50 μM ascorbic acid (Merck, Darmstadt, Germany), and 10 mM β-glycerol phosphate (Merck, Darmstadt, Germany) (PLGA/β-TCP). At next step, the hASCs seeded scaffolds are incubated at 5% CO2 in a humidified incubator at predefined temperature of about 37° C. for a period of about 3 weeks. The effect of 30 minutes pre-treatment with calcitriol on hASC proliferation is exemplarily illustrated in FIG. 4C. […] The 30 minutes pre-treatment with calcitriol increases the cell number at day 14 by 3.5-fold, and at day 21 by 2.6-fold. The continuous treatment of hASCs with calcitriol for 3 weeks increases the cell number only at day 14 by 1.7-fold, but not at day 21 compared to non-treated controls as shown in FIG. 4C. The results of hASC proliferation are expressed as CFU (in %) versus time (in days) and represent means±standard errors of the means of the colon forming unit counts (n=3), where p<0.0001.

[3] = tested on: human adipose stem cells (hASCs); assay: Osteogenic and angiogenic gene expression of hASCs in 3D PLGA/β-TCP scaffold, dynamic and static culture
Protocol: as §1, §2
Referring to FIGS. 11A to 11I, the effects of perfusion culture of hASCs on osteogenic and angiogenic differentiation of hASCs are disclosed, where the hASCs are seeded in 3D PLGA/β-TCP scaffold. In one embodiment, the hASCs are pre-treated with or without 10 nM of calcitriol for 30 minutes and cultured in the modified perfusion bioreactor (dynamic culture) and flask bioreactor (static culture).

[4] = 14 days, perfusion culture of pre-treated vs static culture of pre-treated hASCs
[5] = 14 days, perfusion culture of pre-treated vs perfusion culture of non-treated hASCs
[6] = day 7, dynamic culture of pre-treated vs perfusion culture of non-treated hASCs
[7] = day 7, dynamic culture of pre-treated vs static culture of treated hASC

Structure (SMILES): C=C1/C(=C\C=C2/CCC[C@]3(C)[C@@H]([C@H](C)CCCC(C)(C)O)CC[C@@H]23)C[C@@H](O)C[C@@H]1O [calcitriol, 1,25-dihydroxyvitamin D3]
- ALP activity, increase ([1]; 7 days, perfusion culture of pre-treated hASCs vs static culture of pre-treated hASCs): 9.2 fold
- ALP activity, increase ([1]; 7 days, perfusion culture of pre-treated vs perfusion culture of non-treated hASCs): 2.6 fold
- ALP activity, increase [1, 4]: 2.2 fold
- ALP activity, increase ([1]; static condition, day 7, pre-treated vs non-treated hASCs): 2.8 fold
- ALP activity, increase ([1]; static condition, day 14, pre-treated vs non-treated hASCs): 1.3 fold
- cell number, increase ([2]; 30 min pre-treatment, day 14): 3.5 fold
- cell number, increase ([2]; 30 min pre-treatment, day 21): 2.6 fold
- cell number, increase ([2]; continuous treatment for 3 weeks, day 14): 1.7 fold
- cell number, increase ([2]; continuous treatment for 3 weeks, day 21): not at day 21
- CYP27B1 gene expression, increase [3, 5]: 5.3 fold
- Endotelin-1 gene expression, increase [3, 5]: 4 fold
- Ki-67 gene expression, increase [3, 5]: 1.8 fold
- OCN gene expression, increase [3, 5]: 2.1 fold
- RUNX2 gene expression, increase [3, 5]: 6.4 fold
- SPARC gene expression, increase [3, 5]: 2.8 fold
- VEGF165 gene expression, increase [3, 5]: 3.1 fold
- VEGF189 gene expression, increase [3, 5]: 2.5 fold
- CYP27B1 gene expression, increase [3, 4]: 15.4 fold
- Endotelin-1 gene expression, increase [3, 4]: 35 fold
- Ki-67 gene expression, increase [3, 4]: 5.1 fold
- OCN gene expression, increase [3, 4]: 4.1 fold
- OPN gene expression, increase [3, 4]: 60 fold
- RUNX2 gene expression, increase [3, 4]: 82.8 fold
- SPARC gene expression, increase [3, 4]: 33.2 fold
- VEGF165 gene expression, increase [3, 4]: 1.4 fold
- VEGF189 gene expression, increase [3, 4]: 5.7 fold
- OPN gene expression (level) ([3]; day 7, dynamic culture of pre-treated hASC): 0.1084
- Endotelin-1 gene expression, increase [3, 6]: 120.9 fold
- Ki-67 gene expression, increase [3, 6]: 45.9 fold
- OCN gene expression, increase [3, 6]: 1.8 fold
- RUNX2 gene expression, increase [3, 6]: 186.5 fold
- SPARC gene expression, increase [3, 6]: 3 fold
- VEGF165 gene expression, increase [3, 6]: 3 fold
- VEGF189 gene expression, increase [3, 6]: 3.4 fold
- Endotelin-1 gene expression, increase [3, 7]: 5.4 fold
- OCN gene expression, increase [3, 7]: 7.1 fold
- OPN gene expression, increase [3, 7]: 47.3 fold
- SPARC gene expression, increase [3, 7]: 7.5 fold
- VEGF165 gene expression, increase [3, 7]: 9.8 fold
- VEGF189 gene expression, increase [3, 7]: 8.8 fold
- OPN gene expression (level) ([3]; day 7, static culture of treated hASC): 0.002291
